# Test results as given in patent EP0335637A2, “Nerve growth factor peptides” (THE REGENTS OF THE UNIVERSITY OF CALIFORNIA, priority 1988, dated 1989).
# Where a SMILES comes first, the peptide text is derived from it.
# Tests used:
# [1] = test system: embryologic day 10 dorsal root ganglia neurons; assay: NGF-independent neurite outgrowth in response to CNTF (nonspecific toxicity check); type: cell-based, chick; settings: C5 up to 2.6p moles/ml (Figure 3)
# Description: Potential nonspecific toxicity of peptide C5 (KGKE) was investigated with embryologic day 10 dorsal root ganglia neurons which also extend neurites in the presence of ciliary neurotrophic factor (CNTF). The effect of peptide C5 on NGF-independent neurite outgrowth was assessed.
# [2] = Resistance to proteolysis during cell culture (HPLC recovery); type: in vitro ADME; settings: after 24 hr in culture; 2.0 µmole/ml peptide, 100 pg/ml NGF and cells
# Description: The resistance of peptide C5 to proteolytic cleavage during cell culture was assessed. Quadruplicate wells were prepared each containing 2.Oµ mole/ml of peptide in culture medium, 100 pg/ml NGF and cells as described above. After 24 hr in culture, 320 ul (4 wells x 80 ul) of culture medium were collected. Fresh culture medium containing 2.0 µmole/ml of peptide was also prepared. Both samples of peptide-containing medium were filtered through a Centricon membrane (Amicon, Bedford) with a molecular weight cutoff of 10,000. 250 µl of filtrate was loaded onto a C18 uBondapak analytic HPLC column and run under the same conditions described above for peptide purification. The quantity of peptides in fresh compared to post-culture medium was determined by integration of their absorbance peaks. After 24 hr in culture, more than 80-85% of the initial quantity of peptide C5 was recovered.
compound,measurement,setting,value
"NCCCC[C@H](NC(=O)CNC(=O)[C@@H](N)CCCCN)C(=O)N[C@@H](CCC(=O)O)C(N)=O [C5, KGKE] (H-KGKE-NH2)",effect on number of neurons bearing neurites in response to CNTF,[1],no detectable effect
same,initial quantity of peptide recovered,[2],80-85%
